Results: publication PMC7601446, “Significant Decreased Expressions of CaN, VEGF, SLC39A6 and SFRP1 in MDA-MB-231 Xenograft Breast Tumor Mice Treated with Moringa oleifera Leaves and Seed Residue (MOLSr) Extracts” (Nutrients, 2020)

Experiments:
[1] = Ferric reducing antioxidant power (FRAP) assay; conditions: mean ±2 standard deviation (n = 3)
Description: Moringa mixtures were subjected to phytochemical analysis following methods described by Harborne (1998) and Kokate (2005), which are based on visual observation of color changes or the formation of precipitates. Quantitative analysis of total flavonoid content (TFC) and total phenolic content (TPC) of moringa mixtures were determined spectrophotometrically by the aluminum calorimetric method (quercetin as the reference standard) and Folin–Ciocalteu method (gallic acid as the reference standard) with minor modifications, respectively. […] These antioxidant assays were carried out according to Yang et al. (2011) with slight modifications. Detailed steps were described previously by Abdul Hisam et al. (2018). All the experiments were conducted in triplicate.

[2] = Body weight and relative organ weight in MDA-MB-231 xenograft mice; type: in vivo, NOD/ShiJic-SCID mice; conditions: up to eight weeks
Description: Animal study was approved by the UiTM Committee on Animal Research and Ethics (Ethic approval number: UiTM CARE 278/2019 (05/04/2019)). All animal experiments were conducted in accordance with standard ethical guidelines. Six- to eight-week-old female SPF NOD/ShiJic-SCID mice were obtained from Nomura Siam International (Bangkok, Thailand). […] To evaluate the tumorigenesis in the animal model, the highly aggressive MDA-MB-231 cell lines were injected into SCID mice to induce the breast cancer model. MDA-MB-231 cell lines (ATCC® HTB-26TM) were grown in Leibovitz's medium (L15) (HyClone, Rd. Logan, UT, USA) with 10% fetal bovine serum (FBS) (Gibco, Gaithersburg, MD, USA) and 1% penicillin-streptomycin (Beyotime Biotechnology, Haimen, Jiangsu, China) in a humidified incubator at 37 °C without CO2. Mice were subcutaneously injected with 3 × 10^6/100 μL MDA-MB-231 cells into the right flank region in the SCID mice. […] Body weight and tumor volume were measured weekly up to two months. […] Subsequently, all organs (liver, kidney, spleen, heart and lung) and tumors were excised, weighted and calculated as relative organ weight (expressed as the percentage of organ weight to body weight). […]

[3] = test system: vascular endothelial cell growth factor (VEGF); test: Serum ELISA of VEGF in xenograft mice; type: in vivo; conditions: high-dose M1S9 or TAM 30 mg/kg vs non-treated xenograft mice
Description: (§1) Body weight and tumor volume were measured weekly up to two months. The tumor-growth-inhibition rate (I.R.) was calculated using the following formula: I.R. (%) = {[(Average tumor volume of the control − average tumor volume of the treated group)/Average tumor volume of the control] * 100%}. After two months, serum blood was collected for biochemical analysis. Subsequently, all organs (liver, kidney, spleen, heart and lung) and tumors were excised, weighted and calculated as relative organ weight (expressed as the percentage of organ weight to body weight). The tumors were snap-frozen in liquid nitrogen for gene expression analysis later.
(§2) Serum blood was subjected to biochemical analysis on calcineurin (CaN), estrogen (ES) and vascular endothelial cell growth factor (VEGF) proteins using ELISA kits (FineTest, Wuhan, China), following the manufacturer’s instructions. […] Eluted RNA was quantitated and purity-checked using UV-absorbance-based NanoDrop® (Thermo Scientific, Wilmington, NC, USA) and Agilent 2100 Bioanalyzer RNA 6000 Nano Chip (Agilent, Palo Alto, CA, USA), respectively. […] Threshold cycle (CT) of each gene was analyzed for ΔΔCT after normalization using housekeeping genes in the web-based RT^2 Profiler Data Analysis Software (https://www.qiagen.com/my/shop/genes-and-pathways/data-analysis-center-overview-page/).

[4] = test system: 84 key human breast cancer genes in MDA-MB-231 xenograft tumor; test: Human Breast Cancer RT2 Profiler PCR array on excised tumor; type: in vivo, mice; conditions: TAM-treated vs non-treated, p < 0.05
Description: as §1
Serum blood was subjected to biochemical analysis on calcineurin (CaN), estrogen (ES) and vascular endothelial cell growth factor (VEGF) proteins using ELISA kits (FineTest, Wuhan, China), following the manufacturer’s instructions. The Human Breast Cancer RT^2 Profiler PCR array (Rotor-Gene® Format) (PAHS-131ZR, Qiagen® GmbH, Hilden, Germany) was used to profile the expression of 84 genes associated with key human breast cancer pathways. Briefly, total RNA was isolated from pulverized tumor tissues of non-treated (negative control), high-dose M1S9-treated mice and TAM-treated (positive control) using RNeasy® Lipid Tissue Mini kit (Qiagen® GmbH, Hilden, Germany). Three biological replicates were prepared from each group. Eluted RNA was quantitated and purity-checked using UV-absorbance-based NanoDrop® (Thermo Scientific, Wilmington, NC, USA) and Agilent 2100 Bioanalyzer RNA 6000 Nano Chip (Agilent, Palo Alto, CA, USA), respectively. A total of 1000 ng of RNA sample was converted to cDNA using RT^2 First Strand Kit (Qiagen® GmbH, Hilden, Germany) according to the manufacturer’s protocol. The cDNA was then mixed with RT^2 SYBR Green ROX FAST Mastermix and RNase-free water before dispensing into the array and then subjected to Rotor-Gene® Q real time PCR cycler (Qiagen® GmbH, Hilden, Germany) for analysis. Threshold cycle (CT) of each gene was analyzed for ΔΔCT after normalization using housekeeping genes in the web-based RT^2 Profiler Data Analysis Software (https://www.qiagen.com/my/shop/genes-and-pathways/data-analysis-center-overview-page/).

calcineurin (CaN) = test: Serum ELISA of calcineurin in xenograft mice; type: in vivo; conditions: high-dose M1S9 or TAM 30 mg/kg vs non-treated xenograft mice
Description: as §1, §2

estrogen (ES) = test: Serum ELISA of estrogen in xenograft mice; type: in vivo; conditions: TAM 30 mg/kg vs non-treated xenograft mice
[5] = test system: MDA-MB-231 xenograft tumor; test: In vivo tumorigenicity study, MDA-MB-231 xenograft mice; set-up: species or system NOD/ShiJic-SCID mice
Description: Animal study was approved by the UiTM Committee on Animal Research and Ethics (Ethic approval number: UiTM CARE 278/2019 (05/04/2019)). All animal experiments were conducted in accordance with standard ethical guidelines. Six- to eight-week-old female SPF NOD/ShiJic-SCID mice were obtained from Nomura Siam International (Bangkok, Thailand). All mice were housed in the pathogen-free environment under controlled conditions (temperature 20–26 °C, humidity 40–70%, light/dark cycle 12 h/12 h) and received water and food ad libitium. To evaluate the tumorigenesis in the animal model, the highly aggressive MDA-MB-231 cell lines were injected into SCID mice to induce the breast cancer model. MDA-MB-231 cell lines (ATCC® HTB-26™) were grown in Leibovitz’s medium (L15) (HyClone, Rd. Logan, UT, USA) with 10% fetal bovine serum (FBS) (Gibco, Gaithersburg, MD, USA) and 1% penicillin-streptomycin (Beyotime Biotechnology, Haimen, Jiangsu, China) in a humidified incubator at 37 °C without CO2. Mice were subcutaneously injected with 3 × 10^6/100 μL MDA-MB-231 cells into the right flank region in the SCID mice.
as §1

SMILES	FRAP [1]	body weight changes [2]	VEGF protein level [3]	AR gene expression [4]	CTNNB1 gene expression [4]	ESR1 gene expression [4]	IL6 gene expression [4]	MYC gene expression [4]	NR3C1 gene expression [4]	THBS1 gene expression [4]	CaN protein level (calcineurin (CaN))	ES protein level (estrogen (ES))	tumor volume compared to the control mice ([5]; M1S9 all three doses, TAM 30 mg/kg, up to six weeks, p < 0.05)	tumor growth inhibition (highest inhibition rate) ([5]; TAM 30 mg/kg subcutaneously, sixth week)	tumor growth inhibition ([5]; TAM 30 mg/kg subcutaneously, third week) [%]
O=C1O[C@H]([C@@H](O)CO)C(O)=C1O [ascorbic acid]	172.41 ± 12.6 ^$ µg Trolox/mg	–	–	–	–	–	–	–	–	–	–	–	–	–	–
CC/C(=C(\c1ccccc1)c1ccc(OCCN(C)C)cc1)c1ccccc1 [TAM, tamoxifen]	–	no significant difference	decreased significantly	induced significantly	suppressed significantly	induced significantly	induced significantly	induced significantly	induced significantly	induced significantly	decreased significantly	decreased significantly	significant reduction	up to 80.5%	69.1
